# From ChEMBL document CHEMBL1134310, “3-(Arylacetylamino)-N-methylbenzamides: a novel class of selective anti-Helicobacter pylori agents” (2001)
# Legend:
# Type in all cases: functional
# [1] = system: Helicobacter pylori; experiment: Minimum inhibitory concentration against Helicobacter pylori.
# [2] = system: Helicobacter pylori; experiment: Minimum inhibitory concentration against Helicobacter pylori under acidic conditions at pH 7.0
# [3] = system: Helicobacter pylori; experiment: Minimum inhibitory concentration against Helicobacter pylori under acidic conditions at pH 6.0
# [4] = system: Helicobacter pylori; experiment: Minimum inhibitory concentration against Helicobacter pylori under acidic conditions at pH 5.0
SMILES,MIC [1],further results
CNC(=O)c1cccc(NC(=O)Cc2cccc(O)c2)c1,6.25 µg/mL,–
O=C(Cc1cccc(Br)c1)Nc1cccc(C(=O)O)c1,> 100 µg/mL,–
CNC(=O)c1cccc(NC(=O)CC2CCCCC2)c1,12.5 µg/mL,–
CNC(=O)c1cccc(NC(=O)Cc2cccc(F)c2)c1,3.12 µg/mL,–
CONC(=O)c1cccc(NC(=O)Cc2cccc(Br)c2)c1,12.5 µg/mL,–
CC1(C)S[C@@H]2[C@H](NC(=O)[C@H](N)c3ccc(O)cc3)C(=O)N2[C@H]1C(=O)O [AMOXICILLIN],–,MIC [2]: 0.031 µg/mL; MIC [3]: 0.125 µg/mL; MIC [4]: 0.5 µg/mL
CNC(=O)c1cccc(NC(=O)COc2ccccc2)c1,3.12 µg/mL,–
CCOC(=O)c1cccc(NC(=O)Cc2cccc(Br)c2)c1,> 100 µg/mL,–
CNC(=O)c1cccc(NC(=O)Cc2cccc([N+](=O)[O-])c2)c1,3.12 µg/mL,–
CC[C@H]1OC(=O)[C@H](C)[C@@H](O[C@H]2C[C@@](C)(OC)[C@@H](O)[C@H](C)O2)[C@H](C)[C@@H](O[C@@H]2O[C@H](C)C[C@H](N(C)C)[C@H]2O)[C@](C)(OC)C[C@@H](C)C(=O)[C@H](C)[C@@H](O)[C@]1(C)O [CLARITHROMYCIN],0.05 µg/mL,MIC [2]: 0.063 µg/mL; MIC [3]: 0.5 µg/mL; MIC [4]: 2 µg/mL
CN(C)C(=O)c1cccc(NC(=O)Cc2cccc(Br)c2)c1,25 µg/mL,–
O=C(Cc1cccc(Br)c1)Nc1cccc(C(=O)NO)c1,12.5 µg/mL,–
CNC(=O)c1cccc(NC(=O)Cc2ccccc2Cl)c1,3.12 µg/mL,–
NC(=O)c1cccc(NC(=O)Cc2cccc(Br)c2)c1,100 µg/mL,–
CCNC(=O)c1cccc(NC(=O)Cc2cccc(Br)c2)c1,3.12 µg/mL,–
CNC(=O)c1cccc(NC(=O)CCc2ccccc2)c1,12.5 µg/mL,–

# More lines, main results first:
MIC [1],SMILES,further results
0.78 µg/mL,CNC(=O)c1cccc(NC(=O)Cc2c[nH]c3ccccc23)c1,–
0.78 µg/mL,CNC(=O)c1cccc(NC(=O)CCc2ccccc2OC)c1,–
0.39 µg/mL,CNC(=O)c1cccc(NC(=O)COc2ccc3ccccc3c2)c1,–
0.2 µg/mL,CNC(=O)c1cccc(NC(=O)OCc2c(Cl)cccc2Cl)c1,–
0.78 µg/mL,CNC(=O)c1cccc(NC(=O)Cc2cccc(OC)c2)c1,–
0.39 µg/mL,CNC(=O)c1cccc(NC(=O)Cc2cccc(Cl)c2)c1,–
0.78 µg/mL,CNC(=O)c1cccc(NC(=O)Cc2cccc(OCc3ccccc3)c2)c1,–
0.78 µg/mL,CNC(=O)c1cccc(NC(=O)Cc2ccc3c(c2)OCO3)c1,–
1.56 µg/mL,CNC(=O)c1cccc(NC(=O)Cc2ccccc2)c1,–
0.05 µg/mL,CNC(=O)c1cccc(NC(=O)OCc2cccc3ccccc23)c1,–
0.1 µg/mL,CNC(=O)c1cccc(NC(=O)Cc2cccc3ccccc23)c1,MIC [2]: 0.125 µg/mL; MIC [3]: 0.125 µg/mL; MIC [4]: 0.125 µg/mL
0.1 µg/mL,CNC(=O)c1cccc(NC(=O)COc2cccc3ccccc23)c1,–
0.78 µg/mL,CNC(=O)c1cccc(NC(=O)Cc2ccc(Cl)cc2)c1,–
0.1 µg/mL,CNC(=O)c1cccc(NC(=O)OCc2ccc3ccccc3c2)c1,–
0.1 µg/mL,CNC(=O)c1cccc(NC(=O)OCc2ccc(C)cc2)c1,–
0.2 µg/mL,CNC(=O)c1cccc(NC(=O)OCc2ccc(Cl)cc2)c1,–
0.05 µg/mL,CNC(=O)c1cccc(NC(=O)Cc2ccc3ccccc3c2)c1,MIC [2]: 0.063 µg/mL; MIC [3]: 0.063 µg/mL; MIC [4]: 0.063 µg/mL
0.39 µg/mL,CNC(=O)c1cccc(NC(=O)Cc2cccc(Br)c2)c1,–
0.39 µg/mL,CNC(=O)c1cccc(NC(=O)Cc2cccc(C)c2)c1,–
0.78 µg/mL,CNC(=O)c1cccc(NC(=O)Cc2ccc(Br)cc2)c1,–
0.39 µg/mL,CNC(=O)c1cccc(NC(=O)COc2cccc(Cl)c2Cl)c1,–
0.1 µg/mL,CNC(=O)c1cccc(NC(=O)Cc2csc3ccccc23)c1,MIC [2]: 0.25 µg/mL; MIC [3]: 0.25 µg/mL; MIC [4]: 0.25 µg/mL
